How the values were obtained:
ICR mice [1] = assay: Tetrad model: relative immobility (RI), ring-immobility test; type: in vivo; conditions: Mus musculus, iv, 40 min; i.v., ring immobility 40 min after injection; read-out: R.I. ED50
Text: (§1) ICR Mice and Materials. Male ICR mice (Harlan Laboratories, Indianapolis, Ind.) weighing between 24 to 30 g were used in all experiments. Mice were maintained on a 14:10-hr light/dark cycle with food and water available ad lib. All test groups consisted of 6 to 12 mice. Analogs dissolved in a vehicle consisting of ethanol, emulphor and saline in a ratio of 1:1:18. All chemicals for receptor binding studies were purchased from Sigma (St. Louis, Mo.) except the following: Dulbeco's modified Eagle's medium (DMEM) from GIBCO BRL (Grand Island, N.Y.), Whatman GF/B glass fiber filters from Fischer Scientific (Pittsburg, Pa.), fetal calf serum (FCS) and fetal bovine serum (FBS) from HyClone Laboratories (Logan, Utah) and Budget-Solve scintillation fluid from RPI Corp. (Mount Prospect, Ill.).
Rectal temperature was measured 30 min after the i.v. injection. The change in rectal temperature (Δ° C.) following analog administration was calculated for each animal. Relative immobility (catalepsy) was measured 40 min after the i.v. injection by the ring-immobility test. Mice were placed on a ring 5.5 cm in diameter attached to a stand at a height of 16 cm. The amount of time the mice spent motionless on the ring during the 5-minute procedure was measured, with the criteria of immobility being defined as the absence of all voluntary movements, including whisker movement, but excluding respiration. The percent immobility was calculated as: % immobility=[time immobile (sec)]/[length of session (sec)]×100. Mice that fell from the ring or actively jumped were allowed five attempts. After the fifth escape these mice were removed from the ring and not included in the calculations. Data were collected from 6-12 mice for each condition tested.
(§2) Data analysis. Based on data obtained from numerous previous in vivo studies with cannabinoids, maximal cannabinoid effects in each in vivo pharmacological procedure were estimated as follows: 90% inhibition of spontaneous activity, 100% MPE in the tail flick procedure, and −6° C. change in rectal temperature. Means and standard error (S.E.) were calculated for % MPE, number of photocell disruptions, % ring immobility and Δ° C. Analysis of variance (ANOVA) was used to determine significant differences between control and treatment groups followed by Dunnett's t-test post-hoc analysis. Statistical analysis was performed using StatView, version 5.0 (SAS Institute, Cary, N.C.). Significance was defined as a “p”<0.05. ED50's were defined as the dose at which half maximal effect occurred. For drugs that produced one or more cannabinoid effect, ED50's were calculated separately using least-squares linear regression on the linear part of the dose-effect curve for each measure in the mouse tetrad, plotted against log10 transformation of the dose.

ICR mice [2] = assay: Tetrad model: antinociception in the tail-flick procedure (TF); type: in vivo; conditions: Mus musculus, iv, 20 min; i.v., tail-flick 20 min after injection; read-out: T.F. ED50
Text: as §1
(§3) Behavioral Evaluations. All animals were allowed to acclimate to the observation room overnight. Behavioral effects were assessed in the tetrad model to measure potency in decreasing spontaneous activity (SA), antinociception [tail-flick procedure, TF], rectal temperature (RT) and relative immobility (RI) catalepsy. The baselines for tail-flick latency (2-4 sec) and rectal temperature were determined prior to i.v. injections. Baseline rectal temperatures were measured using a telethermometer and a thermometer probe inserted to 25 mm (Yellow Springs Instrument Co., Yellow Springs, Ohio). The mice treated i.v. with an analog were placed in individual photocell activity chambers 5 min later. Spontaneous activity wasp monitored for 10 min in a Digiscan Animal Activity Monitor (Omnitech Electronice, Inc., Columbus, Ohio) as measured by the number of interruptions of 16 photocell beams per chamber. The total number of beam interruptions during the 10-min period was determined and presented as total counts. The mice were then assessed at 20 min following the i.v. injection for antinociception using the tail-flick reaction time to a heat stimulus. A 10-sec maximum latency was used in order to avoid tail injury. The results are presented as % MPE and are calculated as follows: % MPE=[(test latency-control latency)/(10 sec−control latency)]×100.
as §2

human CB1 receptor = target: T1, human CB1 receptor (Homo sapiens, UniProt P21554); assay: CB1 receptor binding, [3H]CP55,940 displacement; conditions: HEK-293 membranes, means ± SE, N = 3
T1 construct: expressed in transfected cells; host or cells: HEK-293
Procedure: (§4) Membrane Preparations. HEK-293 cells stably expressing the human CB1 receptor were cultured in DMEM with 10% FBS and Chinese Hamster Ovary (CHO) cells stably expressing the human CB2 receptor were cultured in DMEM with 10% FCS. Cells were harvested by replacement of the media with cold phosphate-buffered saline containing 1 mM EDTA followed by centrifugation at 1000×g for 5 min at 4° C. The pellet was resuspended in 50 mM Tris-HCl containing 320 mM sucrose, 2 mM EDTA and 5 mM MgCl2 (pH 7.4) (centrifugation buffer), then centrifuged at 1000×g for 10 min at 4° C. and the resulting supernatant was saved. This process was repeated twice. The supernatant fractions were combined and centrifuged at 40,000×g for 30 min at 4° C. The resulting P2 pellet was resuspended in assay buffer (50 mM Tris-HCl (pH 7.4), 3 mM MgCl2, 0.2 mM EGTA, and 100 mM NaCl) and protein was measured. Membranes were stored at −80° C. until use.
(§5) Receptor Binding. Membrane homogenates (50 μg) were incubated with 0.5 nM [^3H]CP55,940 in the presence of varying concentrations (1 nM-10 μM) of test compounds in 0.5 ml of buffer containing BSA (5 mg/ml). Non-specific binding was measured in the presence of 1 μM CP55,940. The assay was incubated at 30° C. for 1 hr and terminated by addition of ice cold 50 mM Tris-HCl+BSA (1 mg/ml) (pH 7.4) followed by filtration under vacuum through Whatman GF/B glass fiber filters with 3 washes with cold Tris buffer. Bound radioactivity was determined by liquid scintillation spectrophotometry at 50% efficiency after extraction by shaking samples for 30-60 min with Budget-Solve scintillation fluid. Data are reported as the mean ±SEM of three experiments, each performed in triplicate. Ki values were calculated from displacement data using EBDA (Equilibrium Binding Data Analysis; BIOSOFT, Milltown, N.J.).

human CB2 receptor = target: T2, human CB2 receptor (Homo sapiens, UniProt P34972); assay: CB2 receptor binding, [3H]CP55,940 displacement; conditions: CHO membranes, means ± SE, N = 3
T2 construct: expressed in transfected cells; host or cells: CHO
Procedure: as §4, §5

ICR mice [3] = assay: Tetrad model: inhibition of spontaneous activity (SA); type: in vivo; conditions: Mus musculus, iv, spontaneous activity 5-15 min after injection; read-out: S.A. ED50
Text: as §1, §3, §2

[4] = test system: retinal ganglionic cells (RGC); assay: Rat NMDA model: retinal flat mounts, RGC count; type: in vivo; conditions: NMDA treatment only
Procedure: Rat NMDA Model. To mimic glaucomatous damage to the retina without a potentially confounding effect on IOP, retinal damage was induced by NMDA in a rat model. Following baseline measurements, e.g. IOP, ERG, slit lamp, fundus photography, heart rate and blood pressure, N-methyl D-aspartate (NMDA, 2 μl of 10 mM) was injected intravitreally to induce RGC damage. […] For positive identification, a hand scanner was used each time the rat was examined. This was necessary since the examiners will be masked as to treatment group. Treatment groups consisted of either NMDA only (control), O-1812 (0.1%) or O-2545 (0.1%), O-1812 (0.1%)+SR-141716 (2 mM), O-2545 (0.1%)+SR-141716 (2 mM), O-1812 (0.1%)+SR-144258 (2 mM) and O-2545 (0.1%)+SR-144258 (2 mM). All experiments were conducted in accordance with the policies of the Institutional Animal Care and Use Committee and the ARVO policy on use of animals in experiments. A minimum of two baseline ERG measurements was recorded 1 wk prior, 1 wk and 2 wk post injection. At the end of each experiment, rats were sacrificed and their eyes were preserved for histological assessment of effects on the retina and optic nerve.
Histology. For retinal flat mounts, retinas were dissected from formalin fixed whole eyes, mounted on superfrost glass slides, stained with hematoxylin and eosin and digitally photographed. For analysis, the retina was divided into four quadrants. A minimum of five 50 μm^2 sections per quadrant were used to count cell number. The cell sections were selected to be equidistant from the optic cup for all quadrants. For optic nerve experiments, the optic nerve was dissected at the margin of the optic disk and embedded in cryo media. Sections of 10 μm thickness were cut and mounted on superfrost glass slides and stained with hematoxylin and eosin. The slides were digitally photographed.

[5] = test system: IOP in a rat glaucoma model; assay: Combination therapy: IOP in a rat glaucoma model; type: in vivo, Sprague Dawley rats
Text: (§6) Rat Glaucoma Model. Compared to acute studies, a chronic rat model of glaucoma was generated. The rats were made glaucomatous by ligating three vortex veins (Hosseini, A. et al. (2006) Chronic topical administration of WIN-55-212-2 maintinas a reduction in IOP in a rat glaucoma model without adverse effects. Exp. Eye Res. 82(5):753-9). More specifically, ocular hypertension was induced in Sprague-Dawley rats by ligating 3 of 4 episcleral veins of the right eye using 9.0 nylon sutures under anesthesia with 3 mg/Kg acepromazine and 20 mg/Kg ketamine. Within 6 wk, IOP increased by at least 5 mm Hg in the operated eye. This intervention produced at least a 30% increase in IOP in the operated eye and lasted for up to 60 weeks. During this time, a 30% loss of retinal function was documented by ERG. […] Thus, the model accurately mimics the progressive damage that occurs in patients with glaucoma.
(§7) Measurements of Intraocular Pressure. IOP elevation was measured under mild sedation using a calibrated Goldmann tonometer modified for rats. Three determinations were averaged for each eye. To account for diurnal variation, all IOP's were measured between 11 am and 1 pm during the daily trough period.
Combination Therapy. Since cannabinoids and timolol, which are both known to reduce IOP, have different mechanisms of action, there is potential for a synergistic effect. The combination of timolol and a synthetic cannabinoid (WIN55 212-2, O-1812, or O-2545) to reduce IOP in a chronic rat model of ocular hypertension was examined. Surgical ligation of three of the four episcleral veins in one eye of Sprague Dawley rats caused a long lasting (>44 week) increase in IOP. IOP was measured by Goldmann tonometry at baseline (−30), 0, 30, 60 and 120 min, as was heart rate and blood pressure. For combination therapy, after baseline IOP measurement, timolol 0.5% was applied topically followed 30 min later by WIN55 212-2 1.0%, O-1812 1.0%, or O-2545 1.0%. In another experiment, O-1812 1.0% and O-2545 1.0% were administered simultaneously. An analysis for ocular irritation was performed by slit lamp examination (SLE) at baseline and 150 min.

[6] = test system: IOP in a rat glaucoma model; assay: IOP after topical application in chronic rat glaucoma model; type: in vivo, Sprague-Dawley rats; conditions: 1.0% topical
Text: as §6, §7
Therapeutic Regimen. For IOP Measurements (Topical application) Baseline IOP, heart rate, blood pressure and normal ocular anatomy were documented prior to drug administration. The drugs WIN 55-212-2 (0.1%, 1.0%), O-1812 (0.01%, 0.1%, 1.0%), O-2545 (0.1%, 1.0%) were all dissolved in Tocrisolve™ (vehicle). IOP, heart rate, and blood pressure were measured prior to and after 30, 60 and 120 min after topical administration. Contralateral eyes served as vehicle treated controls.

T2 sequence (P34972 whole entry): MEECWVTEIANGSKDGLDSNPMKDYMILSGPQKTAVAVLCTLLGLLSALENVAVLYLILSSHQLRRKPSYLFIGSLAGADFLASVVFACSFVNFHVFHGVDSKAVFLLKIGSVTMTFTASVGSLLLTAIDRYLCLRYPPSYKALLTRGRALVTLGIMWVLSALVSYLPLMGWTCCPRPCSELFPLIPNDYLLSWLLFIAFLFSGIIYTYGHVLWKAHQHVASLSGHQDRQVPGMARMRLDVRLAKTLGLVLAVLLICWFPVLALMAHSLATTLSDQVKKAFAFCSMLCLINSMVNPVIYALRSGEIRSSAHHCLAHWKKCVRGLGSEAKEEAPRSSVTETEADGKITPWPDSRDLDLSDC
T1 sequence (P21554 whole entry): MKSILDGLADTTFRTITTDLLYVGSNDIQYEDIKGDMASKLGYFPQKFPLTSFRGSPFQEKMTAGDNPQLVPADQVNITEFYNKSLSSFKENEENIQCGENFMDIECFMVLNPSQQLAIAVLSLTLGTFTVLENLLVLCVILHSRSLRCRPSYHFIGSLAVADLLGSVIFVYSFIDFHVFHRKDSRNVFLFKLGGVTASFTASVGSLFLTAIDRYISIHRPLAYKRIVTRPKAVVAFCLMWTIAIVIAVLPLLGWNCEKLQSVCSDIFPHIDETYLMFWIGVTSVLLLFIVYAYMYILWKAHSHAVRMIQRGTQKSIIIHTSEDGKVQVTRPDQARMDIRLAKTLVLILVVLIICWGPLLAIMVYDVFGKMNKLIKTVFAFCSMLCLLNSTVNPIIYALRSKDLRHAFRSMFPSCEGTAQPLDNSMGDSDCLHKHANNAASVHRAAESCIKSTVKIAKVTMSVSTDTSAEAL

SMILES	ED50 (ICR mice [1])	ED50 (ICR mice [2])	Ki (human CB1 receptor)	Ki (human CB2 receptor)	ED50 (ICR mice [3])	Reduction of RGC cell density [4]	IOP at 120 min (% Baseline) ([5]; 0.5% topical alone, 120 min)	Time for which IOP was significantly decreased ([5]; timolol alone, prior experiments in this model)	Time for which significant IOP reduction was maintained [6]	Effect on IOP at 30 min ([6]; 30 min)	IOP after 60 min (% of Baseline) ([6]; 60 min)
C[C@H](CO)NC(=O)CCC/C=C\C/C=C\C/C=C\C/C=C\C(C)(C)CCCCn1cccn1 [Compound O-2954]	0.57 mg/kg	0.19 mg/kg	0.127 ± 0.00284 µM	0.301 ± 0.0356 µM	0.14 mg/kg	–	–	–	–	–	–
C[C@H](CO)NC(=O)CCC/C=C\C/C=C\C/C=C\C/C=C\C(C)(C)CCCCn1cncn1 [Compound O-2955]	2.21 mg/kg	1.94 mg/kg	0.298 ± 0.0339 µM	0.215 ± 0.0405 µM	2.03 mg/kg	–	–	–	–	–	–
C[C@H](CO)NC(=O)CCC/C=C\C/C=C\C/C=C\C/C=C\C(C)(C)CCCCN1CCOCC1 [Compound O-4316]	0.03 mg/kg	0.04 mg/kg	0.00388 ± 0.00022 µM	0.0224 ± 0.00043 µM	0.11 mg/kg	–	–	–	–	–	–
C[C@H](CO)NC(=O)CCC/C=C\C/C=C\C/C=C\C/C=C\C(C)(C)CCCCn1ccnc1 [Compound O-4368]	0.25 mg/kg	0.29 mg/kg	0.0905 ± 0.005 µM	0.153 ± 0.005 µM	0.68 mg/kg	–	–	–	–	–	–
C[C@H](CO)NC(=O)CCC/C=C\C/C=C\C/C=C\C/C=C\C(C)(C)CCCCN1CCCCC1 [Compound O-4386]	0.7 mg/kg	0.55 mg/kg	0.0928 ± 0.0022 µM	0.226 ± 0.024 µM	0.79 mg/kg	–	–	–	–	–	–
C[C@H](CO)NC(=O)CCC/C=C\C/C=C\C/C=C\C/C=C\C(C)(C)CCCCN1CCCC1 [Compound O-4388]	0.84 mg/kg	0.38 mg/kg	0.0994 ± 0.0059 µM	0.404 ± 0.039 µM	0.42 mg/kg	–	–	–	–	–	–
CN[C@H](CC(=O)O)C(=O)O [NMDA, N-methyl D-aspartate, reference compound]	–	–	–	–	–	49%	–	–	–	–	–
CC(C)(C)NC[C@H](O)COc1nsnc1N1CCOCC1 [Timolol, timolol]	–	–	–	–	–	–	91.5 ± 10.2 % Baseline	30 min	–	–	–
Cc1c(C(=O)c2cccc3ccccc23)c2cccc3c2n1[C@@H](CN1CCOCC1)CO3 [WIN 55-212-3, reference compound]	–	–	–	–	–	–	–	–	up to 120 min	significantly lowered	86.5 ± 2.5 % of Baseline
